This note sets out measurements from patent US20260256792A1, “TREATMENT OF CHRONIC SPONTANEOUS URTICARIA BY ADMINISTERING (R)-2-[3-[4-AMINO-3-(2-FLUORO-4-PHENOXY-PHENYL)PYRAZOLO[3,4-D]PYRIMIDIN-1-YL]PIPERIDINE-1-CARBONYL]-4-METHYL-4-[4-(OXETAN-3-YL)PIPERAZIN-1-YL]PENT-2-ENENITRILE” (priority 2023, published 2026).

The test system of the assay is sMRGPRX2. The experiment in a line: Phase 2 CSU study: serum sMRGPRX2 ELISA. In kind it is in vivo, human. Particulars: for SMRGPRX2 (ng/mL) Median Percent Change from Baseline: Baseline to Week 12. The text has this: Blood samples were also collected through Week 12 to evaluate the change in baseline in various biomarkers, including sMRGPRX2, IgG anti-TPO, IgG anti-FCεRI, IgG anti-IgE, and IL-31.
Collection of biological samples for other biomarker research was also part of this study. The following samples for biomarker research were required and were to be collected from all participants in this study: • Serum and plasma samples for soluble biomarkers and cellular tests. Analytes included IgG anti-IgE, IgG anti-FcεRI, IgG anti-TPO, IgE anti-TPO, IL-31, and sMRGPRX2. • Blood samples for immune cell phenotyping, including measurement of eosinophil levels • Blood samples for BTK occupancy in peripheral blood mononuclear cells (PBMCs) at selected sites
For each patient, serum samples were to be collected on each of four visits (Visits 2, 4, 6, and end of study/follow up).
Serum analyte testing was to be performed using the following commercial assays: • sMRGPRX2 ELISA (Cat. No. #MBS933336; MyBioSource) • IL-31 HTRF assay (Cat. No. #62HIL31PEG; Cisbio/PerkinElmer) • IgG anti-TPO ELISA (Cat. No. #ORG503; Orgentec Diagnostica GmbH)
If dilutions were to be prepared, the same dilutions were to be prepared twice from each sample. These were to be measured on different plates. Each plate was to include a standard curve. Samples were to be measured twice for all biomarkers except for sMRGPRX2. Mean measurement values were to be calculated, and the concentration of the biomarker was to be calculated using GraphPad Prism 9 software (4-PL model).
For the sMRGPRX2 ELISA, measurements were performed according to the manufacturer's instructions. Single measurements were obtained for all samples.
Assay data ranges are described below. • sMRGPRX2: 0.1 ng/mL-10 ng/mL • IgG anti-FCεRI: 0-10000 arbitrary units (AU) • IgG anti-TPO: 0-3000 international units (IU) • IgE anti-TPO: 0-500 AU • IgG anti-IgE: 0-100000 AU • IL-31: 0.1 ng/mL-20 ng/mL
A general note: ELISA stands for enzyme-linked immunosorbent assay.

With `CC(C)(C=C(C#N)C(=O)N1CCC[C@@H](n2nc(-c3ccc(Oc4ccccc4)cc3F)c3c(N)ncnc32)C1)N1CCN(C2COC2)CC1` [rilzabrutinib, (R)-2-[3-[4-amino-3-(2-fluoro-4-phenoxy-phenyl)pyrazolo[3,4-d]pyrimidin-1-yl]piperidine-1-carbonyl]-4-methyl-4-[4-(oxetan-3-yl)piperazin-1-yl]pent-2-enenitrile], the “reduction from baseline median sMRGPRX2 levels” value (400 mg TID, Week 12) was determined as 22.8%. The “SMRGPRX2 (ng/mL) Median Percent Change from Baseline” value is given as −29.3% (400 mg BID), −31.1% (400 mg QPM) and −22.8% (400 mg TID).
